The values that follow come from patent publication US20260263431A1, “ARYL HYDROCARBON RECEPTOR AGONIST PRODRUGS AND METHODS OF USE THEREOF” (Allianthera (Suzhou) Biopharmaceutical Co., Ltd., priority 2022, published 2026).

The nature of series [1]: Caco-2 permeability assay (AB). Type of series: in vitro ADME. The note with it: human, apical to basolateral. As for the experimental part:
(§1) Compounds were tested under typical Caco-2 and S9 assay conditions.

The next series is described as follows: S9 stability assay. The series is classed as in vitro ADME. The note with it: read-out: mouse S9 Clint. The method, then: as §1
A short description of series [2]: In vitro anaerobic metabolism in mouse fecal homogenate. Type of series: in vitro ADME. The note with it: 20 μM, anaerobic 37° C. The method, then:
(§2) The ability of the compounds of Formula (I) to release the active compound in the small or large intestine is assessed by introducing representative compounds of the disclosure to the contents of either a rodent small intestine or a rodent large intestine for up to 24 hours at 37° C. The amount of active drug released after the incubation period is determined by LC-MS/MS. Additional studies are conducted by incubating representative compounds of the disclosure with human fecal samples.
(§3) In Vitro Anaerobic Metabolism in Fecal Homogenates (vs. Control)
(§4) Compound 1 was dissolved in PBS (pH 7.4) to provide a 200 μM working solution. An aliquot of 50 μL volume was spiked to each 450 μL fecal homogenate incubation sample to provide an incubation concentration at 20 μM.
(§5) An estimated 1 g to 2 g wet weight of fecal material from healthy mice and rats (separately) was immediately collected in a pre-labelled 50 mL EP tube and stored at ambient room temperature. Based on the weight of each fecal material, a dilution with 0.01 M isotonic phosphate buffer (pH 7.0) is performed to provide a 12.5× diluted fecal homogenate. All fecal materials were stored at room temperature before being used in fecal homogenate preparation.
(§6) Under anaerobic conditions, each of the fecal specimen materials collected in 0.01 M isotonic phosphate buffer (pH 7.0) was homogenized by shaking and mixing with a stirrer. Each lot of the fecal homogenate material was added with an appropriate volume of 0.01 M isotonic phosphate buffer (pH 7.0) to provide fecal homogenate at 12.5× dilution. Under anaerobic condition in a nitrogen glove box purged with high purity nitrogen to ensure <1% oxygen level, the fecal homogenate was transferred to a clean container and diluted with 3 volumes of Brain Heart Infusion Broth (BHI) to provide a 50× diluted fecal homogenate. The diluted fecal homogenate matrix at an aliquot of 0.45 mL was dispensed into 2-mL EP tube, freshly prepared Compound 1 working solutions were then spiked to the fecal homogenate sample vials for incubation over the metabolic stability time-course.
(§7) Compound 1 was incubated at a target concentration of 20 μM in each fecal homogenate over a time course of 0, 1, 2, 4, 6 and 24 hours. Metabolic incubation at each time point was performed in triplicate. Incubation of the samples was performed in 2-mL EP tube. Into each pre-labeled sample vial, 50 μL of a Compound 1 working solution was accurately dispensed followed by the addition of the 0.45 mL pre-incubated fecal homogenate. Sample were capped, vortex mixed and incubated under an anaerobic environment at 37° C. At the end of each incubation time point, 1.0 mL of IS (Internal Standard) as a stop solvent was added to each sample with vortex mixed to stop the metabolic reactions. Samples at the 0-hour time point were pre-treated with the addition of IS stop solvent prior to the spiking of fecal homogenate and Compound 1. All samples were stored at −80° C. prior to LC-MS/MS assay. Samples are analyzed by LC-MS/MS. The MS detection is performed using a Sciex API 5500+ instrument. Each compound is analyzed by reverse phase HPLC.

Series [3] is described as follows: In vitro anaerobic metabolism in rat fecal homogenate. Type of series: in vitro ADME. As to conditions: 20 μM, anaerobic 37° C. As for the experimental part:
as §2, §3, §4, §5, §6, §7

The nature of series [4]: Stability in BHI broth (vehicle stability control). Type of series: in vitro ADME. As to conditions: 20 μM.
The target in the next series is T1, AHR (Homo sapiens, UniProt P35869).
T1 sequence (P35869 11-848): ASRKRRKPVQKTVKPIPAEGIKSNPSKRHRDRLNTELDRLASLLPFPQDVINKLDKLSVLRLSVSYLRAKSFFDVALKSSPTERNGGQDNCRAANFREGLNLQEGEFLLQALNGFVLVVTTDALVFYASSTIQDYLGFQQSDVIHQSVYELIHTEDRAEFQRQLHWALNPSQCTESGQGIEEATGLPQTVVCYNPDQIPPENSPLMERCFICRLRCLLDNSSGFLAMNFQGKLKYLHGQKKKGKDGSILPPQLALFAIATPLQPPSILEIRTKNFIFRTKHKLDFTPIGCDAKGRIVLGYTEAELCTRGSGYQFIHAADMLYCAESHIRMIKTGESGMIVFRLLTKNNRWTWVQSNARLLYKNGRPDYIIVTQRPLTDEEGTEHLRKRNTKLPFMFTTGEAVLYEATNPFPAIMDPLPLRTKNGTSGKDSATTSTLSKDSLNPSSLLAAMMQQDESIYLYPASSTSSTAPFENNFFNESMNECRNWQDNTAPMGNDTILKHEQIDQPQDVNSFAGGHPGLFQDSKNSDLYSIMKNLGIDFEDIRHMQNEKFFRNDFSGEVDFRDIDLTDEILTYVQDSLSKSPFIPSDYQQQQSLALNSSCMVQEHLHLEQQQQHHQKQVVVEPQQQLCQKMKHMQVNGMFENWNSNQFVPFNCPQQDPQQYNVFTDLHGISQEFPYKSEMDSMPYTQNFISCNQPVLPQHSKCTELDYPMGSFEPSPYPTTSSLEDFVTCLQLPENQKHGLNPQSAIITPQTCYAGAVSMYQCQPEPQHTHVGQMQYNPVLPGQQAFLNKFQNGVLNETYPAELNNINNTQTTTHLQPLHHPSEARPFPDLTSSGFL
As to the kind of experiment: AHR activity of the metabolite (reEC50 / abEC50). The series is classed as cell-based. As to conditions: relative to tapinarof at 1 μM. As for the experimental part:
The AHR activity of the metabolite is measured as AHR reEC50 (as % activation to tapinarof at 1 μM)—of 166.1 nM (69.5%) and a AHR abEC50 of 241.5 nM.

Some results are limits rather than exact numbers.

As to `CC(C)c1ncc(/C=C/c2ccccc2)cc1OS(=O)(=O)O` [Compound 1, {2-isopropyl-5-[(E)-2-phenylethenyl]pyridin-3-yl}oxidanesulfonic acid], the Papp A→B in series [1] is 0.44 ×10⁻⁶ cm/s. Besides, the intrinsic clearance in mouse S9 in “S9 stability assay” came to 4.91 µL/min/mg. In addition, the “Compound 1 Conc. Average” value in series [2] (0 hr) was 23.7 µM; in series [2] (1 hr) it was 21.8 µM; in series [2] (2 hr) it was 21.6 µM; in series [2] (4 hr), 19.2 µM; in series [2] (6 hr) it was 14.75 µM; in series [2] (24 hr) it was 0.0738 µM. Also, the “Compound 1 Conc. Average” value in series [3] (0 hr) stood at 25.05 µM; in series [3] (1 hr) it was 21.3 µM; in series [3] (2 hr) it was 20.55 µM; in series [3] (4 hr), 14.2 µM; in series [3] (6 hr), 3.02 µM; in series [3] (24 hr) it was 0.0657 µM. Besides, the “Compound 1 Conc. Average” value in series [4] (0 hr) worked out at 23.2 µM; in series [4] (24 hr) it was 21.9 µM.

For the molecule `CC(C)c1c(O)cc(-c2cc3ccccc3cn2)cc1OS(=O)(=O)O` [Compound 2, [3-hydroxy-2-isopropyl-5-(isoquinolin-3-yl)phenyl]oxidanesulfonic acid], the intrinsic clearance in mouse S9 in “S9 stability assay” was 1.18 µL/min/mg.

Consider `CC(C)c1c(O)cc(-c2cnc3ccccc3c2)cc1OS(=O)(=O)O` [Compound 3, [3-hydroxy-2-isopropyl-5-(quinolin-3-yl)phenyl]oxidanesulfonic acid], for which the Papp A→B in series [1] turned out to be 0.29 ×10⁻⁶ cm/s.

In series [1], `CC(C)c1c(OP(=O)(O)O)cc(-c2cnc3ccccc3c2)cc1OP(=O)(O)O` [Compound 4, 2-isopropyl-3-(phosphonooxy)-5-(quinolin-3-yl)phenoxyphosphonic acid] registered a Papp A→B of less than 0.2 ×10⁻⁶ cm/s. The intrinsic clearance in mouse S9 in “S9 stability assay” was 3.43 µL/min/mg.

Take `CC(C)c1ncc(/C=C/c2ccccc2F)cc1OS(=O)(=O)O` [Compound 5, {5-[(E)-2-(2-fluorophenyl)ethenyl]-2-isopropylpyridin-3-yl}oxidanesulfonic acid]: the Papp A→B in series [1] amounted to 0.44 ×10⁻⁶ cm/s. The intrinsic clearance in mouse S9 in “S9 stability assay” stood at 2.64 µL/min/mg.

Regarding `CC(C)c1ncc(/C=C/c2ccc(F)cc2)cc1OS(=O)(=O)O` [Compound 6, {5-[(E)-2-(4-fluorophenyl)ethenyl]-2-isopropylpyridin-3-yl}oxidanesulfonic acid], the apical-to-basolateral permeability (Papp A→B) in series [1] is 0.62 ×10⁻⁶ cm/s. For the same molecule, the intrinsic clearance in mouse S9 in the series “S9 stability assay” is 1.26 µL/min/mg.

With `CC(C)c1c(O)cc(-c2cc(F)c3cnc(N)nc3c2)cc1OS(=O)(=O)O` [Compound 7, [5-(2-amino-5-fluoroquinazolin-7-yl)-3-hydroxy-2-isopropylphenyl]oxidanesulfonic acid], the apparent permeability from apical to basolateral (Papp A→B) in series [1] turned out to be 0.37 ×10⁻⁶ cm/s.

With `CC(C)c1c(O)cc(-c2ccc3cc(F)ccc3n2)cc1OS(=O)(=O)O` [Compound 8, [5-(6-fluoroquinolin-2-yl)-3-hydroxy-2-isopropylphenyl]oxidanesulfonic acid], the intrinsic clearance in mouse S9 in “S9 stability assay” came out at 0.02 µL/min/mg.

Regarding `CCCc1c(F)cc(/C=C/c2ccccc2)cc1OS(=O)(=O)O` [Compound 9, {3-fluoro-5-[(E)-2-phenylethenyl]-2-propylphenyl}oxidanesulfonic acid], the apical-to-basolateral permeability (Papp A→B) in series [1] is 0.29 ×10⁻⁶ cm/s. The intrinsic clearance in mouse S9 in the series “S9 stability assay” stood at 0.7 µL/min/mg.

In turn, `CC(C)c1c(F)cc(/C=C/c2ccccc2)cc1OS(=O)(=O)O` [Compound 10, {3-fluoro-2-isopropyl-5-[(E)-2-phenylethenyl]phenyl}oxidanesulfonic acid] registered an apparent permeability from apical to basolateral (Papp A→B) in series [1] of 0.25 ×10⁻⁶ cm/s. Besides, in “S9 stability assay”, the intrinsic clearance in mouse S9 was 0.47 µL/min/mg.

`Cc1ccnc2cc(-c3cc(F)c(C(C)C)c(OP(=O)(O)O)c3)ccc12` [Compound 11, 3-fluoro-2-isopropyl-5-(4-methylquinolin-7-yl)phenyl dihydrogen phosphate]: the intrinsic clearance in mouse S9 in the series “S9 stability assay” was 0.68 µL/min/mg.

`CC(C)c1ncc(/C=C/c2ccccc2)cc1O` [metabolite]: the “% activation to tapinarof at 1 μM” value on AHR was 69.5%.
